Blank lines part the entries; values can stand above or below the compound they belong to.
Assays:
[1] = target: Tyrosine-protein kinase Fes/Fps (Homo sapiens) (UniProt P07332); details: at 10 µM
[2] = target: Protein arginine N-methyltransferase 3 (Homo sapiens, UniProt O60678); test: Selectivity interaction (Methyltransferase screen (radiometric assays, panel of 8 PRMTs, 21 protein lysine methyltransferases, 3 DNA methyltransferases, and one RNA methyltransferase)) EUB0000272b PRMT3
[3] = target: T1, Mitogen-activated protein kinase 12 (Homo sapiens) (UniProt P53778); test: Selectivity interaction (Kinase panel (literature)) EUB0001199aCl MAPK12; details: at 1 µM
T1 sequence (whole entry): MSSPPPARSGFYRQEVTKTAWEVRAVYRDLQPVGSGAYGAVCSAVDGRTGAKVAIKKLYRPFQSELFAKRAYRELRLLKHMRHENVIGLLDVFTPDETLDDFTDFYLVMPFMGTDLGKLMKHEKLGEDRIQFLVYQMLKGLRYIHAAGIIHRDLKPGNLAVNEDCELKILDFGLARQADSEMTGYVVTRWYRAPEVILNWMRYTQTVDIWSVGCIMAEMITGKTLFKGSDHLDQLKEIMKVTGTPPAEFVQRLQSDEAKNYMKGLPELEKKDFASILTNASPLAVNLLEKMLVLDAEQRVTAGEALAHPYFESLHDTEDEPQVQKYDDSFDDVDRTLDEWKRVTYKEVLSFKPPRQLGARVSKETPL

[4] = target: Interferon-induced, double-stranded RNA-activated protein kinase (Homo sapiens) (UniProt P19525); test: Selectivity interaction (KinomeScan (DiscoverX)) EUB0000607a EIF2AK2; details: at 10 µM
Interferon-induced, double-stranded RNA-activated protein kinase (Homo sapiens), sequence (P19525 whole entry): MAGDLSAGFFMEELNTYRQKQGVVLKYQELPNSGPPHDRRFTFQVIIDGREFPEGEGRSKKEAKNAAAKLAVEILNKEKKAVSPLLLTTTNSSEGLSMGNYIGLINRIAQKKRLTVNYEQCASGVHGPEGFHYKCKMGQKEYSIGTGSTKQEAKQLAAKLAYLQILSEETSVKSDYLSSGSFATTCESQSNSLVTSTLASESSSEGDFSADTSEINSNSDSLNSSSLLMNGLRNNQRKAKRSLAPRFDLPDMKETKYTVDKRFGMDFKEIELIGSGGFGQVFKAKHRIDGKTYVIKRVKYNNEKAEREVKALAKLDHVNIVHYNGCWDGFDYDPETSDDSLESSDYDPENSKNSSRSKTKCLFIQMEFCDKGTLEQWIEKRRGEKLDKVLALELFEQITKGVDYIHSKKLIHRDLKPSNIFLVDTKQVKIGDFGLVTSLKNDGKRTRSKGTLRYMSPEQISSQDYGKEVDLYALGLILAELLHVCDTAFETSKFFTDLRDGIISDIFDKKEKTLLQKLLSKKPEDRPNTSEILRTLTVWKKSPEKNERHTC

[5] = target: Serine/threonine-protein kinase PLK3 (Homo sapiens, UniProt Q9H4B4); test: Selectivity interaction (KinomeScan (DiscoverX)) EUB0000607a PLK3; details: at 10 µM
Serine/threonine-protein kinase PLK3, sequence (Q9H4B4 whole entry, looked up): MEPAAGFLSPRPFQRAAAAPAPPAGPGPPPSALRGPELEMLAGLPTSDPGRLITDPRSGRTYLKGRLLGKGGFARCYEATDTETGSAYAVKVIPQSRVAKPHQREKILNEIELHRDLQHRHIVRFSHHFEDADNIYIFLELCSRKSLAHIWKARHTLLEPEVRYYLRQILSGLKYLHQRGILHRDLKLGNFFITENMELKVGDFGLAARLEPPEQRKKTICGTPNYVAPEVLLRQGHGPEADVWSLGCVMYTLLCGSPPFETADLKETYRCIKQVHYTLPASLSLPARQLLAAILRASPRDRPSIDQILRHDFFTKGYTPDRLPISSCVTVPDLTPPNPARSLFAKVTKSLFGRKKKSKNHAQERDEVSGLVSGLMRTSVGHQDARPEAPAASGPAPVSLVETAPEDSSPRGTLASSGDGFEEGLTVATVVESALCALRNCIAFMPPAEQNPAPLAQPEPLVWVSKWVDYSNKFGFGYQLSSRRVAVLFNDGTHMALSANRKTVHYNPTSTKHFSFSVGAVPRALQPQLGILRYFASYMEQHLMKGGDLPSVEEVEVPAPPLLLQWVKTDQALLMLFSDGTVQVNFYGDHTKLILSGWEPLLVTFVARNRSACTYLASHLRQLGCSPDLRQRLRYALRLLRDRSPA

[6] = target: T2, Serine/threonine-protein kinase D3 (Homo sapiens) (UniProt O94806); test: Selectivity interaction (SelectScreen profiling (Invitrogen)) EUB0000607a PRKD3; details: at 2 µM
T2 sequence (whole entry): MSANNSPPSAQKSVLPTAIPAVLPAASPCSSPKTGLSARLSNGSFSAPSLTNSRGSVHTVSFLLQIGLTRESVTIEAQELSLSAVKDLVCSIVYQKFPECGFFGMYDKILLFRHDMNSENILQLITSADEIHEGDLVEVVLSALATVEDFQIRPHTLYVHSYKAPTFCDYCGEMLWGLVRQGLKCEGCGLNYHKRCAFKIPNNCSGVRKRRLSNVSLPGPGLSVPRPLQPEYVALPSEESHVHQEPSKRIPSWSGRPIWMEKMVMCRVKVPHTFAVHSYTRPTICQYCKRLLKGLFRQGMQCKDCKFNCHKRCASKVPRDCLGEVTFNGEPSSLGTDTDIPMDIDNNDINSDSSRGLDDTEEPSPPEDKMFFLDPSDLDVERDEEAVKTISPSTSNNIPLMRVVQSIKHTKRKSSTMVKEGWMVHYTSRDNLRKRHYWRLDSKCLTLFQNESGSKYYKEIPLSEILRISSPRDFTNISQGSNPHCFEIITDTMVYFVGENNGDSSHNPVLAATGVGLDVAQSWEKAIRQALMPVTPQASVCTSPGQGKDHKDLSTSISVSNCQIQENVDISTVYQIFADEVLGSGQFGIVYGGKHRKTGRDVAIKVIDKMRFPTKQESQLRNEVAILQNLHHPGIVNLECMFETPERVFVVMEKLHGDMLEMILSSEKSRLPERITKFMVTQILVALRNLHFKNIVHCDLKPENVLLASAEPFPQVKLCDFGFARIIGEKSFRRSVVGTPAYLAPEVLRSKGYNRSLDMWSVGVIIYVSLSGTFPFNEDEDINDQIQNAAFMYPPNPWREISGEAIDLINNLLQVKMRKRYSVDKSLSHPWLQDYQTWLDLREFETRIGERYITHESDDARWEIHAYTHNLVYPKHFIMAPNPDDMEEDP

[7] = target: Protein kinase C theta type (Homo sapiens, UniProt Q04759); test: Selectivity interaction (KinomeScan (DiscoverX)) EUB0000607a PRKCQ; details: at 10 µM
Protein kinase C theta type, sequence (Q04759 whole entry, looked up): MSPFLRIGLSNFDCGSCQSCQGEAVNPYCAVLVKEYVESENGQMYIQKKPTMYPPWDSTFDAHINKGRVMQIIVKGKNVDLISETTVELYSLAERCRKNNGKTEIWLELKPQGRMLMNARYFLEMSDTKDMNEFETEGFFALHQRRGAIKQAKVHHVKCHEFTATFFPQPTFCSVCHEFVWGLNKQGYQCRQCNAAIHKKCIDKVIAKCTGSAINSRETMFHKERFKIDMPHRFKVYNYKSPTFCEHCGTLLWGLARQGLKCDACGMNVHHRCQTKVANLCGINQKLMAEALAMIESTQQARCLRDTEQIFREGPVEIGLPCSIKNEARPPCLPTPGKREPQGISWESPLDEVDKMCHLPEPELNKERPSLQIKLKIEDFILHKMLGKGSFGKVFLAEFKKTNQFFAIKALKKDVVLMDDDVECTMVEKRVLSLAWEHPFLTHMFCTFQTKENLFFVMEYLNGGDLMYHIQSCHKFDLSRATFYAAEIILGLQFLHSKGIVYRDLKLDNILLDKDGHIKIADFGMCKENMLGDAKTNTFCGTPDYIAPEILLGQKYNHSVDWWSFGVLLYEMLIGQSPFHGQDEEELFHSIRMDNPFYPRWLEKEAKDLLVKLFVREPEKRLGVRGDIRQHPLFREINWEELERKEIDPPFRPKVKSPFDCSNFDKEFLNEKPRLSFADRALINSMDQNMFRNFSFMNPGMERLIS

[8] = target: Cyclin-dependent kinase 1/cyclin B (Homo sapiens) (UniProt P06493+P14635+Q8WWL7+O95067); test: Selectivity interaction (Upstate Kinase Profiler service (Millipore)) EUB0000056c CDK1; type: protein-complex assay; details: at 1 µM
[9] = target: Serine/threonine-protein kinase Nek7 (Homo sapiens) (UniProt Q8TDX7); test: Selectivity interaction (ActivX KiNativ screen (kinase selectivity in THP-1 cell lysates)) EUB0000639a NEK7; type: subcellular; details: lysate, at 0.2 µM
Serine/threonine-protein kinase Nek7 (Homo sapiens), sequence (Q8TDX7 whole entry, looked up): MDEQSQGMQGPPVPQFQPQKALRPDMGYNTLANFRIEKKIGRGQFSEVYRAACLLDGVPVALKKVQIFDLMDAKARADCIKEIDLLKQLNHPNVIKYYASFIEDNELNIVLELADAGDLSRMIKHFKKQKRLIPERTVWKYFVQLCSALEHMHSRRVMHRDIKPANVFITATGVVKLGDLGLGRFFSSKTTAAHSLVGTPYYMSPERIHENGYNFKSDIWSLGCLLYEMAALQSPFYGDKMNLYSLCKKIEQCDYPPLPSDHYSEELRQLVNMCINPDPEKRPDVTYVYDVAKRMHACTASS

[10] = target: T3, Mitogen-activated protein kinase kinase kinase 2 (Homo sapiens) (UniProt Q9Y2U5); test: Selectivity interaction (KinomeScan (DiscoverX)) EUB0000092b MAP3K2; details: at 10 µM
T3 sequence (whole entry): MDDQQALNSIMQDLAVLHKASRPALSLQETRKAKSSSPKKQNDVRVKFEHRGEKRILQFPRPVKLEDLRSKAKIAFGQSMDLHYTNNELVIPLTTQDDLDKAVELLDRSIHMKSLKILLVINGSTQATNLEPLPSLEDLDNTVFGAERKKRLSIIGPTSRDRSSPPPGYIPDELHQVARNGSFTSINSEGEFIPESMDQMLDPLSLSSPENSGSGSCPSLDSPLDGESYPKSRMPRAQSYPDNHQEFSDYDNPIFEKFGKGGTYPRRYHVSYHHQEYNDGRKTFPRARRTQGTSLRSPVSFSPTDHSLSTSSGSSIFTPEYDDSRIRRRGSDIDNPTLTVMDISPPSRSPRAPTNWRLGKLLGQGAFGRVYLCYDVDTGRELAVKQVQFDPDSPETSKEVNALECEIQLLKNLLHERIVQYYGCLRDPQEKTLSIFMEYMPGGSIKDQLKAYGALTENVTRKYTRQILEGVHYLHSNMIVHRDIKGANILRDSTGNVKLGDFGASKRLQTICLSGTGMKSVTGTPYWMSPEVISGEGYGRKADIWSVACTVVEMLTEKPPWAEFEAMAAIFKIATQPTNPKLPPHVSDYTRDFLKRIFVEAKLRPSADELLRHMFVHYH

[11] = target: Histone-lysine N-methyltransferase ASH1L (Homo sapiens) (UniProt Q9NR48); test: Selectivity interaction (Human bromodomain panel (DSF assay)) EUB0000233b ASH1L
[12] = target: Cell division cycle 7-related protein kinase (Homo sapiens, UniProt O00311); test: Selectivity interaction (LanthaScreen Eu Kinase Binding Assay) EUB0001632a CDC7; details: at 10 µM
Cell division cycle 7-related protein kinase, sequence (O00311 whole entry, looked up): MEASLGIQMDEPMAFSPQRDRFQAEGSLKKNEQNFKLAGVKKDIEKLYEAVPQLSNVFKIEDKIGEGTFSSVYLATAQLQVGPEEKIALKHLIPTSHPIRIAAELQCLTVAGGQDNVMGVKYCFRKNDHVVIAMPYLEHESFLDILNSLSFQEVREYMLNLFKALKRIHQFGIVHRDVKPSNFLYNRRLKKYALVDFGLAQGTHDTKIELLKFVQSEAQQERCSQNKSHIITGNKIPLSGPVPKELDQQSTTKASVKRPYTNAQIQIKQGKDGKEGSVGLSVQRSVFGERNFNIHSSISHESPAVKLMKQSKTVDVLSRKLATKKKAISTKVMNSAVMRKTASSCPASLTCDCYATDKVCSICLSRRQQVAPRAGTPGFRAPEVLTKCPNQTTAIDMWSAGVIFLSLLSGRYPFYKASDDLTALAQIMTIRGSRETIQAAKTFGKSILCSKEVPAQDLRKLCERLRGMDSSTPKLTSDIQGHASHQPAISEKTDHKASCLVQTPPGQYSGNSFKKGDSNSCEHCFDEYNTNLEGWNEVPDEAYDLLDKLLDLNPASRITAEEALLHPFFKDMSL

[13] = target: Serine/threonine-protein kinase pim-3 (Homo sapiens) (UniProt Q86V86); test: Selectivity interaction (Kinase panel (Z-LYTE Assay)) EUB0001632a PIM3; details: at 10 µM

Protein arginine N-methyltransferase 3, sequence (O60678 2-531 limits assumed): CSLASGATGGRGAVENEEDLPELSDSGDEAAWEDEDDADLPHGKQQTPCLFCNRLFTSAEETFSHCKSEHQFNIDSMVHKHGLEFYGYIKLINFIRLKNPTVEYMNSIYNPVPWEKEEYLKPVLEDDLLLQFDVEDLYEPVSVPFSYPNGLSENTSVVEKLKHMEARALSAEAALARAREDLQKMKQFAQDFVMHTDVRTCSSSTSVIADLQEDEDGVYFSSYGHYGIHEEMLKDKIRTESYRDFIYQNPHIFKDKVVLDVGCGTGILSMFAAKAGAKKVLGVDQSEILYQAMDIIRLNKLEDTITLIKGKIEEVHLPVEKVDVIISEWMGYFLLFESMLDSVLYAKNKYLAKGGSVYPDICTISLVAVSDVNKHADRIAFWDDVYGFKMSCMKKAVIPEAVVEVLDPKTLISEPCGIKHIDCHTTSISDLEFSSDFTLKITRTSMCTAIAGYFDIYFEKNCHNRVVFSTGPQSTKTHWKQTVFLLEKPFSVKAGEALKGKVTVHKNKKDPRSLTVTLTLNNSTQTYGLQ
Tyrosine-protein kinase Fes/Fps (Homo sapiens), sequence (P07332 whole entry): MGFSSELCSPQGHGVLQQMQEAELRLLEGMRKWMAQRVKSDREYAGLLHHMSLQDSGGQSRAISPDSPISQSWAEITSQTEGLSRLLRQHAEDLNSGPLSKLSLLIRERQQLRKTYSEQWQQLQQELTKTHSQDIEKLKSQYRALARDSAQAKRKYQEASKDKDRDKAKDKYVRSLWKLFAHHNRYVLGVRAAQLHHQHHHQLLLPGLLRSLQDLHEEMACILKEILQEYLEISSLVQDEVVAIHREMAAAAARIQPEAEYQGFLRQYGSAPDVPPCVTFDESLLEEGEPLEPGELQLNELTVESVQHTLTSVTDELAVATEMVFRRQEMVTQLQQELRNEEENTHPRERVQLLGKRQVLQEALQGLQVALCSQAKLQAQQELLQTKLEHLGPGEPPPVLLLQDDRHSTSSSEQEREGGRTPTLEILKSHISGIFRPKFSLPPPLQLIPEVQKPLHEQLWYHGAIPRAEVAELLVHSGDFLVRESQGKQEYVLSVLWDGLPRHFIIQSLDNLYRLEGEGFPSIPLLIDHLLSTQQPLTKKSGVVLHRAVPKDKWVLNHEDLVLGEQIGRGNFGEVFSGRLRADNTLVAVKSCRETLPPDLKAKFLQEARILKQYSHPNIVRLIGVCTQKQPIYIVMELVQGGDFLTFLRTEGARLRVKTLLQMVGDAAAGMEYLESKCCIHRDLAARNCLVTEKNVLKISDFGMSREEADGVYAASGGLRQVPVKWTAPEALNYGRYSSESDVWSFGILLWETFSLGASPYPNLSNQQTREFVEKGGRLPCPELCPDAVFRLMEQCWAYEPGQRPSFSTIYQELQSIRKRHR

Structure (SMILES): CN1Cc2nccc(-c3cn(C)nc3-c3ccc(F)cc3)c2C1=O
- % of inhibition [3]: 10%

Structure (SMILES): CNC(=O)Nc1ccc(-c2nc(N3CC4CCC(C3)O4)c3cnn(C4CCC5(CC4)OCCO5)c3n2)cc1
- % of control [4]: 100%
- % of control [5]: 100%
- % of inhibition [6]: 4%
- % of control [7]: 100%

Structure (SMILES): Cc1ccc(-c2ccc3c(ccc4sc5c(c43)NC[C@@H](C)NC5=O)n2)cn1
- % of inhibition [8]: 68%

Structure (SMILES): CC[C@@H]1[C@H](F)C(=O)N[C@@H]1COc1nccc2cc(C(N)=O)c(OC)cc12 [ZIMLOVISERTIB]
- % of inhibition [9]: -2.2%

Structure (SMILES): CCC(=O)N1CCN(c2ccc(-n3c(=O)ccc4cnc5ccc(-c6cnc7ccccc7c6)cc5c43)cc2C(F)(F)F)CC1
- % of control [10]: 62%

Continued, values first:

- % of control [1]: 100%
Structure (SMILES): CCN(CC)CCCCNc1ncc2cc(-c3cc(OC)cc(OC)c3)c(NC(=O)NC(C)(C)C)nc2n1

- % of activity ([2]; at 1 µM): 102%
- % of activity ([2]; at 10 µM): 102%
Structure (SMILES): Cc1cc(C)cc([C@H]2c3cc(C)ccc3NC(=O)CN2C(=O)c2ccc(Br)s2)c1

- dTM [11]: < 2 K
Structure (SMILES): CN(C)CCCOc1ccc(-c2cc(NCCCn3cccn3)nc(S(C)(=O)=O)n2)cc1

- % of inhibition [12]: -5.05%
- % of control [13]: -7.71%
Structure (SMILES): Cn1cc(-n2cnc3c(NCc4nc5cc(Cl)c(Cl)cc5[nH]4)nc(N4CCOCC4)nc32)cn1
